This is an account of results in patent US9273058B2 (BRISTOL-MYERS SQUIBB COMPANY, priority 2013, dated 2016).

The test system of assay [1] is pancreatic tumor cell. The conditions noted are these: in vivo; Brockschmidt et al., Gut 2008; cited from earlier work.
Assay [2] has as its system pancreatic tumor cell. The following applies: in vitro; Brockschmidt et al., Gut 2008; cited from earlier work.
In the next assay the target is CK1ε (Homo sapiens, UniProt P49674). The assay is described as follows: CK1ε kinase assay (Caliper LabChip electrophoretic separation of fluoresceinated peptide substrate and product). The conditions noted are these: 200 pM CK1ε, 50 μM ATP, 1.5 μM peptide, 22 hours at room temperature. It counts as biochemical. In outline:
(§1)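 Compounds, taken from 10 mM DMSO stocks, are titrated at eleven concentrations. Kinase reactions proceed for 22 hours at room temperature and are quenched with EDTA. Substrate and product are resolved electrophoretically, and IC50 values are fitted by non-linear regression.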

The target in the next assay is CK1δ (Homo sapiens, UniProt P48730). The assay is described as follows: CK1δ kinase assay (Caliper LabChip electrophoretic separation of fluoresceinated peptide substrate and product). It counts as biochemical. The conditions noted are these: 200 pM CK1δ, 50 μM ATP, 1.5 μM peptide, 22 hours at room temperature. In outline: as §1

Where two headings read alike, the source gives them in different places.

CK1δ, sequence (P48730 whole entry): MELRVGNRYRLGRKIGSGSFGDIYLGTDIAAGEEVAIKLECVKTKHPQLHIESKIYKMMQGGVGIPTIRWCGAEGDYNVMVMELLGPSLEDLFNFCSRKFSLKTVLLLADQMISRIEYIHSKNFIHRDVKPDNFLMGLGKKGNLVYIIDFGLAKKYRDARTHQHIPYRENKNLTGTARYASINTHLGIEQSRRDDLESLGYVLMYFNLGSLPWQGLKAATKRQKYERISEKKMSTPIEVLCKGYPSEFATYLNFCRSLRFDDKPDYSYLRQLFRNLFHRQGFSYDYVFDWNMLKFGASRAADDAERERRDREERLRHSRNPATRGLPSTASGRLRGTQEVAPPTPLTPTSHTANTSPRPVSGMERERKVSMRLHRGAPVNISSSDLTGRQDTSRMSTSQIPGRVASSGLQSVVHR
CK1ε, sequence (P49674 whole entry): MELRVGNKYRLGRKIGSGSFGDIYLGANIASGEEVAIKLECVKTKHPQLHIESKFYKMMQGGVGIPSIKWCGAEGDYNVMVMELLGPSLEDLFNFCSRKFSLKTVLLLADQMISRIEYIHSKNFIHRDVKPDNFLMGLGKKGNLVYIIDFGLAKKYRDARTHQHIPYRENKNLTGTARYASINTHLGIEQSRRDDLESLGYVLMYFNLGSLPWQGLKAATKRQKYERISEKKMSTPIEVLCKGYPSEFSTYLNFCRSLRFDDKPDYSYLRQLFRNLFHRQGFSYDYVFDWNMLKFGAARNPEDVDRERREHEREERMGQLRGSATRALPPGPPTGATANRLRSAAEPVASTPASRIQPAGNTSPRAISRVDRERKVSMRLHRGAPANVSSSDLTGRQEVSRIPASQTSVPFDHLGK

`COc1cc(OC)c(C=C2C(O)=Nc3ccccc32)c(OC)c1` [IC261]: the “pancreatic tumor cell growth” value in the assay on pancreatic tumor cell [1] and in the assay on pancreatic tumor cell [2] was “reduces pancreatic tumor cell growth” each time.
As for `NC(=O)c1c(-c2cccc(Cl)c2)nn2c1CN(C(=O)N[C@H]1C[C@@H](OC(F)(F)F)C1)CC2` [Compound 262, 2-(3-Chlorophenyl)-N^5-((1r,3r)-3-(trifluoromethoxy)cyclobutyl)-6,7-dihydropyrazolo[1,5-a] pyrazine-3,5(4H)-dicarboxamide], the IC50 on CK1ε (read-out: CK1ε IC50 range) and on CK1δ (read-out: CK1δ IC50 range) was 0.01 to 10 nM in each case.
On to `C[C@H]1CN(C(=O)NC2CC(F)(F)C2)Cc2c(C(N)=O)c(-c3ccc(F)c(Cl)c3)nn21` [Compound A115, (S)-2-(3-Chloro-4-fluorophenyl)-N^5-(3,3-difluorocyclobutyl)-7-methyl-6,7-dihydropyrazolo[1,5-a]pyrazine-3,5(4H)-dicarboxamide], for which the IC50 on CK1ε (read-out: CK1ε IC50 range) and on CK1δ (read-out: CK1δ IC50 range) was 0.01 to 10 nM in each case.
With `CC(C)(C)NC(=O)N1CCn2nc(-c3ccc(F)cc3)c(C(N)=O)c2C1` [Compound 1], the IC50 on CK1ε (read-out: CK1ε) was 90.3 nM; on CK1ε (read-out: CK1ε IC50 range), 10 to 100 nM; on CK1δ (read-out: CK1δ) it was 27.8 nM; at CK1δ (read-out: CK1δ IC50 range) it was 10 to 100 nM.
For the molecule `CC(C)(NC(=O)N1CCn2nc(-c3cccc(F)c3)c(C(N)=O)c2C1)C(F)(F)F` [Compound 13, 2-(3-Fluorophenyl)-N^5-(1,1,1-trifluoro-2-methylpropan-2-yl)-6,7-dihydropyrazolo[1,5-a]pyrazine-3,5(4H)-dicarboxamide], the IC50 on CK1ε (read-out: CK1ε IC50 range) lay within 10 to 100 nM; on CK1δ (read-out: CK1δ IC50 range), 0.01 to 10 nM.
For `NC(=O)c1c(-c2ccc(F)c(Cl)c2)nn2c1CN(C(=O)N[C@H]1C[C@H](F)C1)CC2` [Compound 189, 2-(3-Chloro-4-fluorophenyl)-N^5-((1r,3r)-3-fluorocyclobutyl)-6,7-dihydropyrazolo[1,5-a] pyrazine-3,5(4H)-dicarboxamide], in that order: 0.01 to 10 nM and 0.01 to 10 nM.
The corresponding values for `NC(=O)c1c(-c2cccc(Cl)c2)nn2c1CN(C(=O)NC1CC(COC(F)F)C1)CC2` (single isomer, unassigned) [Compound 245, 2-(3-Chlorophenyl)-N^5-(3-((difluoromethoxy)methyl)cyclobutyl)-6,7-dihydropyrazolo[1,5-a]pyrazine-3,5(4H)-dicarboxamide] are 0.01 to 10 nM and 0.01 to 10 nM.
For `CC(C)(NC(=O)N1CCn2nc(-c3ccc(Cl)c(Cl)c3)c(C(N)=O)c2C1)c1ccc(C#N)cc1` [Compound 200, N^5-(2-(4-Cyanophenyl)propan-2-yl)-2-(3,4-dichlorophenyl)-6,7-dihydropyrazolo[1,5-a] pyrazine-3,5(4H)-dicarboxamide], in that order: 0.01 to 10 nM and 0.01 to 10 nM.
As for `NC(=O)c1c(-c2ccc(F)c(Cl)c2)nn2c1CN(C(=O)NC1CCCC1)CC2C(F)F` (stereo not shown) [Compound A11, 2-(3-Chloro-4-fluorophenyl)-N^5-cyclopentyl-7-(difluoromethyl)-6,7-dihydropyrazolo[1,5-a]pyrazine-3,5(4H)-dicarboxamide], the IC50 at CK1ε (read-out: CK1ε IC50 range) and on CK1δ (read-out: CK1δ IC50 range) was 0.01 to 10 nM each time.
Regarding `CC(C)(C)NC(=O)N1CCn2nc(-c3ccc(F)c(F)c3)c(C(N)=O)c2C1` [Compound 106, N^5-(tert-Butyl)-2-(3,4-difluorophenyl)-6,7-dihydropyrazolo[1,5-a] pyrazine-3,5(4H)-dicarboxamide], the IC50 was 29.3 nM at CK1ε (read-out: CK1ε), 10 to 100 nM at CK1ε (read-out: CK1ε IC50 range), 8.7 nM on CK1δ (read-out: CK1δ) and 0.01 to 10 nM at CK1δ (read-out: CK1δ IC50 range).
On to `NC(=O)c1c(-c2ccc(F)c(Cl)c2)nn2c1CN(C(=O)N[C@H]1C[C@@H](OC(F)(F)F)C1)CC2` [Compound 261, 2-(3-Chloro-4-fluorophenyl)-N^5-((1r,3r)-3-(trifluoromethoxy)cyclobutyl)-6,7-dihydropyrazolo[1,5-a]pyrazine-3,5(4H)-dicarboxamide], for which the IC50 on CK1ε (read-out: CK1ε IC50 range) and at CK1δ (read-out: CK1δ IC50 range) was 0.01 to 10 nM in each case.
On to `CS(=O)(=O)c1cccc(NC(=O)N2CCn3nc(-c4cccc(F)c4)c(C(N)=O)c3C2)c1` [Compound 93, 2-(3-Fluorophenyl)-N^5-(3-(methylsulfonyl)phenyl)-6,7-dihydropyrazolo[1,5-a]pyrazine-3,5(4H)-dicarboxamide], for which the IC50 at CK1ε (read-out: CK1ε IC50 range) and on CK1δ (read-out: CK1δ IC50 range) was 0.01 to 10 nM in each case.
